Among the data in ChEMBL document CHEMBL3351940, “Antioxidant effects of the highly-substituted carbazole alkaloids and their related carbazoles” (Bioorg Med Chem Lett, 2014) are IC50 and Activity values, retold here.

Series [1] is described as follows: Antioxidant activity assessed as ABTS+ radical scavenging capacity after 16 hrs by UV spectrophotometry. It counts as physicochemical.
Series [2] in a line: Cytotoxicity against human HCT116 cells assessed as reduction cell viability at 100 uM after 48 hrs by MTT assay. The conditions noted are these: hct-116, 48 h. It counts as cell-based.
Series [3] is described as follows: Antioxidant activity assessed as reduction of Cu2+ to Cu+ after 3 mins by PAO-SO method. It counts as physicochemical. The following applies: 0.05 h.
Series [4] can be described thus: Antioxidant activity assessed as DPPH radical scavenging capacity after 30 mins by UV spectrophotometry. It counts as physicochemical.

As a reminder, the IC50 is the midpoint of a concentration-inhibition curve.

Consider `Cc1c(C)c2c(c(C)c1O)CC[C@@](C)(CCC[C@H](C)CCC[C@H](C)CCCC(C)C)O2` [ALPHA-TOCOPHEROL], for which the IC50 was found to be 211 µM in series [1] and 15.4 µM in series [4]. Besides, the Activity entry is reported as “Non-toxic” in series [2] and “Active” in series [3].

As for `CC(C)=CCc1ccc2[nH]c3c(c2c1)C(=O)C(=O)C(C)=C3CC(C)O` (centres undefined), the results for the IC50 in series [1] and in series [4] were more than 500 µM and more than 50 µM, respectively. The figures for the Activity result in series [2] and in series [3] were “Toxic” and 1182 µmol/L, respectively.

`C/C(=C\c1c(C)c(O)cc2c1[nH]c1c(O)ccc(CO)c12)CCC(C)C`: the IC50 was 112 µM in series [1] and 9.9 µM in series [4]. The Activity result in series [2] was “Non-toxic”; in series [3], 3567 µmol/L.

Consider `CC(C)=CCc1ccc2[nH]c3c(CC(C)O)c(C)c(O)cc3c2c1` (centres undefined), for which the concentration for half-maximal inhibition (IC50) in series [1] amounted to 175 µM; in series [4], 12 µM. For the same compound, the Activity result was “Toxic” in series [2] and 2411 µmol/L in series [3].

In the case of `CCCOC(=O)c1cc(O)c(O)c(O)c1` [PROPYL GALLATE], the IC50 came out at 188 µM in series [1] and 6.1 µM in series [4]. The Activity entry is “Non-toxic” in series [2] and 3096 µmol/L in series [3].

In the case of `CC[C@H](C)CC/C(C)=C/c1c(C)c(O)cc2c1[nH]c1c(O)ccc(C=O)c12`, the IC50 in series [1] amounted to 57.1 µM; in series [4] it was 7.6 µM. In addition, the Activity result in series [2] is “Non-toxic”; in series [3], 4580 µmol/L.

As for `Cc1c(O)cc2c([nH]c3ccccc32)c1CC(C)O` (centres undefined), the IC50 was 161 µM in series [1] and 12 µM in series [4]. Besides, the Activity result in series [2] was “Non-toxic”; in series [3] it was 2881 µmol/L.

In the case of `CC1=NN(c2ccccc2)C(=O)C1` [EDARAVONE], the IC50 is 214 µM in series [1] and 19.7 µM in series [4]. For the same compound, the Activity result was “Non-toxic” in series [2] and 3096 µmol/L in series [3].

Regarding `CC[C@H](C)CC/C(C)=C/c1c(C)c(O)cc2c1[nH]c1c(O)ccc(CO)c12`, the IC50 came to 116 µM in series [1] and 9.8 µM in series [4]. Besides, the Activity entry in series [2] was “Non-toxic”; in series [3], 3413 µmol/L.

Take `CCCCCCCc1c(C)c(O)cc2c1[nH]c1ccccc12`: the IC50 in series [1] is 159 µM; in series [4], 12 µM. The Activity entry in series [2] was “Non-toxic”; in series [3], 2803 µmol/L.

Consider `C/C(=C\c1c(C)c(O)cc2c1[nH]c1c(O)ccc(C=O)c12)CCC(C)C`, for which the IC50 in series [1] came to 52.6 µM; in series [4], 7.1 µM. Also, the Activity result is “Non-toxic” in series [2] and 4584 µmol/L in series [3].
